The results in this text go back to patent US20050043326A1, “Compounds” (Pfizer Inc, priority 2003, published 2005).

This assay has as its system TNFα release from human peripheral blood mononuclear cells. Briefly: Inhibition of TNFα release from LPS-stimulated human peripheral blood mononuclear cells (TNFα screen). To be noted: 18 hours incubation, TNFα in supernatant by ELISA. It is filed as cell-based. Here is the method:
Venous blood is collected from healthy volunteers and the mononuclear cells purified by centrifugation through Histopaque (Ficoll) cushions. TNFα production from these cells is stimulated by addition of lipopolysaccharide. After 18 hours incubation in the presence of LPS, the cell supernatant is removed and the concentration of TNFα in the supernatant determined by ELISA.
Data are presented below for the Examples in which the TNFα and PDE4 inhibition are presented as IC50 values in nM.

For the compound `O=C(N[C@H]1CC[C@@H](NC(=O)c2cc(F)cnc2OC2CCSCC2)CC1)c1ccc(Cl)cc1O` [Example 15, Syn-N-[4-(4-Chloro-2-hydroxy-benzoylamino)-cyclohexyl]-5-fluoro-2-(tetrahydro-thiopyran-4-yloxy)-nicotinamide], the concentration for half-maximal inhibition (IC50) (as a rule, the concentration that gives 50% inhibition) (PBMC) was found to be 0.4 nM.

Where the note is “PBMC”, `O=C(N[C@H]1CC[C@@H](NC(=O)c2cc(F)cnc2OC2CCSCC2)CC1)c1cc(F)ccc1O` [Example 25, Syn-5-Fluoro-N-[4-(5-fluoro-2-hydroxy-benzoylamino)-cyclohexyl]-2-(tetrahydro-thiopyran-4-yloxy)-nicotinamide] yielded an IC50 of 0.8 nM.

For the compound `O=C(N[C@H]1CC[C@@H](NC(=O)c2cc(Cl)cc(Cl)c2O)CC1)c1cc(F)cnc1OC1CCSCC1` [Example 26, Syn-N-[4-(3,5-Dichloro-2-hydroxy-benzoylamino)-cyclohexyl]-5-fluoro-2-(tetrahydro-thiopyran-4-yloxy)-nicotinamide], the IC50 turned out to be 14 nM.

Compound `O=C(N[C@H]1CC[C@@H](NC(=O)c2cc(F)cnc2OC2CCSCC2)CC1)c1cc(Cl)ccc1O` [Example 27, Syn-N-[4-(5-Chloro-2-hydroxy-benzoylamino)-cyclohexyl]-5-fluoro-2-(tetrahydro-thiopyran-4-yloxy)-nicotinamide] yielded an IC50 (PBMC) of 0.7 nM.

Compound `Cc1cccc(C(=O)N[C@H]2CC[C@@H](NC(=O)c3cc(F)cnc3OC3CCSCC3)CC2)c1O` [Example 28, Syn-5-Fluoro-N-[4-(2-hydroxy-3-methyl-benzoylamino)-cyclohexyl]-2-(tetrahydro-thiopyran-4-yloxy)-nicotinamide] returned an IC50 (PBMC) of 12 nM.

Regarding `O=C(N[C@H]1CC[C@@H](NC(=O)c2cc(F)cnc2OC2CCSCC2)CC1)c1ccccc1O` [Example 29, Syn-5-Fluoro-N-[4-(2-hydroxy-benzoylamino)-cyclohexyl]-2-(tetrahydro-thiopyran-4-yloxy)-nicotinamide], where the note is “PBMC”, inhibition was half-maximal at 0.4 nM (IC50).

`O=C(N[C@H]1CC[C@@H](NC(=O)c2cc(O)nc3ccccc23)CC1)c1cc(F)cnc1OC1CCSCC1` [Example 30, Syn-2-Hydroxy-guinoline-4-carboxylic acid (4-{[5-fluoro-2-(tetrahydro-thiopyran-4-yloxy)-pyridine-3-carbonyl]-amino}-cyclohexyl)-amide] displayed an IC50 (PBMC) of 2 nM.

Where the note is “PBMC”, `Cc1cc(C(=O)N[C@H]2CC[C@@H](NC(=O)c3cc(F)cnc3OC3CCSCC3)CC2)c2cc(O)ccc2n1` [Example 31, Syn-6-Hydroxy-2-methyl-quinoline-4-carboxylic acid (4-{[5-fluoro-2-(tetrahydro-thiopyran-4-yloxy)-pyridine-3-carbonyl]-amino}-cyclohexyl)-amide] came in with an IC50 of 1 nM.

In the case of `O=C(N[C@H]1CC[C@@H](NC(=O)c2ccnc3c(O)cccc23)CC1)c1cc(F)cnc1OC1CCSCC1` [Example 32, Syn-8-Hydroxy-quinoline-4-carboxylic acid (4-{[5-fluoro-2-(tetrahydro-thiopyran-4-yloxy)-pyridine-3-carbonyl]-amino}-cyclohexyl)-amide], the IC50 (PBMC) came to 10 nM.

For the compound `O=C(N[C@H]1CC[C@@H](NC(=O)c2cccc3cn[nH]c23)CC1)c1cc(F)cnc1OC1CCSCC1` [Example 33, Syn-1H-Indazole-7-carboxylic acid (4-{[5-fluoro-2-(tetrahydro-thiopyran-4-yloxy)-pyridine-3-carbonyl]-amino}-cyclohexyl)-amide], half-maximal inhibition (PBMC) (IC50) required 0.07 nM.

Compound `O=C(N[C@H]1CC[C@@H](NC(=O)c2cc(F)cnc2OC2CCSCC2)CC1)c1ccc2cn[nH]c2c1` [Example 34, Syn-1H-Indazole-6-carboxylic acid (4-{[5-fluoro-2-(tetrahydro-thiopyran-4-yloxy)-pyridine-3-carbonyl]-amino}-cyclohexyl)-amide] showed an IC50 (PBMC) of 1 nM.

For the setting “PBMC”, `O=C(N[C@H]1CC[C@@H](NC(=O)c2cccn3c(CO)cnc23)CC1)c1cc(F)cnc1OC1CCSCC1` [Example 51, Syn-3-Hydroxymethyl-imidazo[1,2-a]pyridine-8-carboxylic acid (4-{[5-fluoro-2-(tetrahydro-thiopyran-4-yloxy)-pyridine-3-carbonyl]-amino}-cyclohexyl)-amide] came in with an IC50 of 0.1 nM.
